Where no end group is shown, it is not given here. [ ]: non-standard residue; d: D form.
Key:
[1] = system: LHRHR-positive A2780 human ovarian carcinoma cells; assay: Cytotoxicity, modified MTT assay; assay type: cell-based; conditions: for toxicity: LHRHR-positive cancer cells, up to the highest possible concentration
Description: (§1) In contrast, LHRH-BH3 peptide was not toxic in cancer cells not expressing LHRHR. Further, non-targeted Ant-BH3 peptide was toxic in both LHRHR-positive and negative cancer cells. […] Thus, the LHRH peptide specifically targets cancer cells expressing the LHRHR and facilitates the uptake of LHRH-conjugates.
Cytotoxicity of CPT, CPT-PEG, CPT-PEG-BH3, and CPT-PEG-LHRH conjugates and the combination of CPT-PEG-BH3 with CPT-PEG-LHRH conjugates was analyzed using a modified MTT assay (Minko, et al. (1998) supra) in sensitive A2780 and multidrug resistant A2780/AD human ovarian carcinoma cells.
(§2) Cytotoxicity. The cytotoxicity of drugs were assessed using a modified MTT (3-(4,5-dimethylthiazol-2-yl)-2,5-diphenyltetrazolium bromide) assay (Kunath, et al. (2000) Eur. J. Pharm. Biopharm 49:11-15; Minko, et al. (1998) J. Controlled Rel. 54:223-233; Minko, et al. (1999) J. Controlled Rel. 59:133-148; Minko, et al. (2002) Cancer Chemother. Pharmacol. 50:143-150). To measure cytotoxicity, cells were incubated in a 96-well microtiter plate with 45 different equivalent concentrations of CPT ranging from […] in a complex conjugate. Six wells were used for control cells. The duration of incubation was varied from 3 to 72 hours to find an optimal range of incubation time for each complex conjugate.

[2] = system: A2780 human ovarian carcinoma cells; assay: RT-PCR expression of caspases, APAF-1 and SMAC; assay type: cell-based
Description: The effect of the LHRH-BH3 peptide on apoptosis was analyzed by measuring transcriptional and translational levels and activity of human caspases. […] Active caspase 9, in turn, activates a cascade of downstream caspases, as evidenced by increased expression levels, which subsequently leads to induction of apoptosis.
Cystein aspartate-specific proteases (caspases). Three approaches were used to analyze the role of each of the human caspases in the apoptosis induction. First, the expression of genes encoding human caspases 1-10 and the Apoptotic Protease Activating Factor (APAF-1) and Second Mitochondria-Derived Activator of Caspase (SMAC) were studied by RT-PCR (Minko, et al. (1999) supra; Minko, et al. (2000) supra). […] Therefore, in addition to the measurement of the gene expression, the amount of active caspases and activity of the enzymes was measured. The amount of active caspases was estimated by western blot analysis. The activity of expressed caspases was measured using the Caspase Protease Assay kit (MBL International, Watertown, Mass.) or a colorimetric protease assay kit (PanVera, Madison, Wis.) (Minko, et al. (2001) supra). Cells were separately incubated with the conjugates for 48 hours. The assay colormetric assay is based on the spectrophotometric detection of the chromophore p-nitroanilide (pNA) after cleavage from the substrate, X-pNA. An increase in caspase activity was determined by comparing levels in cells exposed to conjugates to levels in cells of the untreated control incubated with saline.
(§3) Gene expression. A combination of reverse transcription (RT) and polymerase chain reaction (PCR) was used for the analysis of gene expression as described (Minko, et al. (1999) J. Controlled Rel. 59:133-148). Briefly, total cellular RNA was isolated using an RNeasy kit (QIAGEN,™, Valencia, Calif.) and a […]™ micro-spin homogenizer (QIAGEN). First-strand cDNA was synthesized by Ready-To-Go You-Prime First-Strand Beads (Amersham Biosciences, Piscataway, N.J.) according to the manufacturer's instructions with 2 μg of total cellular RNA (from 1×10^7 cells) and 100 ng of random hexadeoxynucleotide primer (Amersham Biosciences, Piscataway, N.J.). After synthesis, the reaction mixture was diluted 1:3 with water and immediately subjected to PCR, which was carried out using GenAmp PCR System 2400 (Perkin Elmer Instruments, Shelton, Conn.). The pairs of primers used to amplify each type of cDNA and PCR regimes are well-known in the art (Kunath, et al. (2000) supra; Minko, et al. (2003) supra; Minko, et al. (2002) supra; Minko, et al. (1999) supra; Minko, et al. (2000) supra; Minko, et al. (2001) supra). PCR products were separated in 4% NUSIEVE® 3:1 RELIANT® agarose gels (BMA, East Rutherford, N.J.) in 1×TBE buffer (0.089 M Tris/Borate, 0.002 M EDTA, pH 8.3) by submarine electrophoresis. The gels were stained with ethidium bromide and digitally photographed. To calculate the size and amount of PCR products, a Low DNA Mass ladder (GibcoBRL, Carlsbad, Calif.) was used. β2-microglobulin was used as an internal standard and to confirm the efficacy of PCR (Kunath, et al. (2000) supra; Minko, et al. (2001) supra).

[3] = system: human ovarian carcinoma cells; assay: Cytotoxicity (IC50 dose) of Ant, Ant-BH3 peptide and DOX; assay type: cell-based; conditions: highest possible concentration
Description: (§4) By way of example, the effectiveness of a BH3 peptide ([…] SEQ ID NO:1) to increase cell death by inducing the mitochondrial dysfunction leading to necrosis was measured. BH3 peptide was delivered into human ovarian carcinoma cells by the Antennapedia (Ant) internalization sequence (Arg-Gln-Ile-lys-[…] SEQ ID NO:2). Mitochondrial function was assessed by flow cytometry analysis using the lipophilic cationic fluorescent probe 5,5′,6,6′-tetrachloro-1,1′,3,3′-tetraethylbenzimidazolcarbo-cyanine iodide (JC-1). This probe exists as a monomer, and upon excitation at 490 nm, emits light at 527 nm resulting in green fluorescence. At high mitochondrial transmembrane potential, JC-1 forms multimers, known as J-aggregates, and emits light at 590 nm upon excitation at 490 nm resulting in red fluorescence. Therefore, the red/green fluorescence ratio measured by flow cytometry reflects the number of functioning mitochondria. […] The effect of the Ant-BH3 peptide on mitochondrial transmembrane potential was also determined.
Cytotoxicity. The cytotoxicity of drugs were assessed using a modified MTT (3-(4,5-dimethylthiazol-2-yl)-2,5-diphenyltetrazolium bromide) assay (Kunath, et al. (2000) Eur. J. Pharm. Biopharm 49:11-15; Minko, et al. (1998) J. Controlled Rel. 54:223-233; Minko, et al. (1999) J. Controlled Rel. 59:133-148; Minko, et al. (2002) Cancer Chemother. Pharmacol. 50:143-150). […]

[4] = system: genes encoding proapoptotic members of the BCL-2 protein family; assay: RT-PCR expression of genes encoding proapoptotic members of the BCL-2 protein family; assay type: cell-based, human; conditions: 48 hours, IC50 dose of Ant-BH3 peptide; β2-m internal standard
Description: (§5) The influence of BH3 peptide, delivered by an Ant-BH3 fusion peptide, on the expression of proteins and genes encoding proapoptotic and antiapoptotic members of the BCL-2 protein family was determined. The expression of genes was measured by RT-PCR using β2-m as an internal standard.
(§6) Cell death signaling pathways. To characterize the cell death signaling pathways, the expression of p53, c-fos, c-jun, proapoptotic (BAD, BAX, BCL-G, BCL-W, BCL-XS, BID, BIK, BIM, BNIP 1-3, HARAKIR1, MSL-1S, NIX) and antiapoptotic (BCL-2, AVEN, BAG, BCL-XL, BFL, DAD1, MSL-1) members of BCL-2 family of proteins and genes encoding these proteins were measured by western blot analysis and RT-PCR, respectively using well-established methods known to those of skill in the art.
as §3

[5] = system: genes encoding antiapoptotic members of the BCL-2 protein family; assay: RT-PCR expression of genes encoding antiapoptotic members of the BCL-2 protein family; assay type: cell-based, human; conditions: 48 hours, IC50 dose of Ant-BH3 peptide; β2-m internal standard
Description: as §5, §6, §3

[6] = system: cancer cells not expressing LHRHR; assay: Cytotoxicity in LHRHR-negative cancer cells; assay type: cell-based
Description: as §1, §2

[7] = system: human ovarian carcinoma cells; assay: Mitochondrial transmembrane potential, JC-1 probe, flow cytometry; assay type: cell-based; conditions: JC-1 red/green fluorescence ratio
Description: as §4, with “mitochondria. Ant alone was not toxic up to the highest possible concentration (1 mg/mL). In contrast, the combination of Ant with BH3 peptide led to a significant increase in toxicity of the peptide.” for “mitochondria.”

[8] = system: A2780 human ovarian carcinoma cells; assay: Expression of BCL-2, BCL-XL, SMAC, APAF-1, caspase 9 and caspase 3 genes after CPT conjugates; assay type: cell-based; conditions: 48-hour incubation
Description: The expression of genes encoding antiapoptotic members of the BCL-2 protein family (BCL-2 and BCL-XL), caspase activators (SMAC and APAF-1), caspase 9 (apoptosis inhibitor) and caspase 3 (apoptosis executor) as well as the activity of the caspases was measured after a 48-hour incubation of A2780 human ovarian carcinoma cells with CPT, CPT-PEG, CPT-PEG-BH3, or CPT-PEG-LHRH conjugates.
Gene expression. A combination of reverse transcription (RT) and polymerase chain reaction (PCR) was used for the analysis of gene expression as described (Minko, et al. (1999) J. Controlled Rel. 59:133-148). Briefly, total cellular RNA was isolated using an RNeasy kit (QIAGEN,™, Valencia, Calif.) and a […] ™ micro-spin homogenizer (QIAGEN). First-strand cDNA was synthesized by Ready-To-Go You-Prime First-Strand Beads (Amersham Biosciences, Piscataway, N.J.) according to the manufacturer's instructions with 2 μg of total cellular RNA (from 1×10^7 cells) and 100 ng of random hexadeoxynucleotide primer (Amersham Biosciences, Piscataway, N.J.). After synthesis, the reaction mixture was diluted 1:3 with water and immediately subjected to PCR, which was carried out using GenAmp PCR System 2400 (Perkin Elmer Instruments, Shelton, Conn.). […]

LHRH receptor = target: T1, LHRH receptor (human, UniProt P30968 1-328); assay: cell-based or functional assay
T1 sequence (looked up): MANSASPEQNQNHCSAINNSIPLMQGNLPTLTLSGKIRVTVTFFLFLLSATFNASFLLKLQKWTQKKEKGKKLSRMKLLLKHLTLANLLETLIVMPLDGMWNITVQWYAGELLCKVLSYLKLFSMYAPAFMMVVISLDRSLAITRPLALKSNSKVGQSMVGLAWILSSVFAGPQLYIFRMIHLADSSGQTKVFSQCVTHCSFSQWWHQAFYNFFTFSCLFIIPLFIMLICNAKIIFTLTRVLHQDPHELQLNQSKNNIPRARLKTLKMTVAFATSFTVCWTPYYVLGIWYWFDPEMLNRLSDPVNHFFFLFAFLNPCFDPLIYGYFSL

[9] = A2780, 48 hours, IC50 dose of peptide, ratio of band intensity to β2-m internal standard

Met-Gly-Gln-Val-Gly-Arg-Gln-Leu-Ala-Ile-Ile-Gly-Asp-Asp-Ile-Asn-Arg-Arg-Tyr (MGQVGRQLAIIGDDINRRY; Synthetic BH3 domain peptide) [BH3 peptide]
concentration up to which not toxic ([1]; A2780, maximal possible concentration limited by solubility): > 1 mg/mL | expression of caspases 1, 4, and 5 ([2]; A2780 cells): not expressed

Arg-Gln-Ile-lys-Ile-Trp-Phe-Gln-Asn-Arg-Arg-Met-Lys-Trp-Lys-Lys (RQIKIWFQNRRMKWKK; Antennapedia internalization peptide)
concentration up to which not toxic [3]: > 1 mg/mL

RQIKIWFQNRRMKWKKMGQVGRQLAIIGDDINRRY [Ant-BH3]
Expression, % of Control: BAD [4]: 90 ± 8 % of Control | Expression, % of Control: BAX [4]: 91 ± 9 % of Control | Expression, % of Control: BCL-G [4]: 87 ± 11 % of Control | Expression, % of Control: BCL-XS [4]: 168 ± 11 % of Control | Expression, % of Control: BID [4]: 99 ± 9 % of Control | Expression, % of Control: BIK [4]: 511 ± 42 % of Control | Expression, % of Control: BIM [4]: 114 ± 17 % of Control | Expression, % of Control: BNIP-1 [4]: 93 ± 8 % of Control | Expression, % of Control: BNIP-2 [4]: 173 ± 14 % of Control | Expression, % of Control: BNIP-3 [4]: 69 ± 6 % of Control | Expression, % of Control: HRK [4]: 88 ± 10 % of Control | Expression, % of Control: MLS-1S [4]: 130 ± 11 % of Control | Expression, % of Control: NIX [4]: 89 ± 10 % of Control | toxicity [1]: toxic | Mean Gene Expression ± SD: APAF-1 [2, 9]: 78 ± 3 | Mean Gene Expression ± SD: Caspase 2 [2, 9]: 134 ± 5 | Mean Gene Expression ± SD: Caspase 3 [2, 9]: 60 ± 5 | Mean Gene Expression ± SD: Caspase 6 [2, 9]: 77 ± 5 | Mean Gene Expression ± SD: Caspase 7 [2, 9]: 88 ± 8 | Mean Gene Expression ± SD: Caspase 8 [2, 9]: 70 ± 6 | Mean Gene Expression ± SD: Caspase 9 [2, 9]: 126 ± 11 | Mean Gene Expression ± SD: Caspase 10 [2, 9]: 48 ± 3 | Mean Gene Expression ± SD: SMAC [2, 9]: 77 ± 2 | expression of APAF-1 and SMAC ([2]; A2780 cells): up-regulation | Expression, % of Control: AVEN [5]: 78 ± 2 % of Control | Expression, % of Control: BAG [5]: 56 ± 5 % of Control | Expression, % of Control: BCL-2 [5]: 66 ± 7 % of Control | Expression, % of Control: BCL-W [5]: 97 ± 8 % of Control | Expression, % of Control: BCL-XL [5]: 64 ± 3 % of Control | Expression, % of Control: BFL [5]: 70 ± 2 % of Control | Expression, % of Control: DAD-1 [5]: 99 ± 5 % of Control | Expression, % of Control: MCL-1L [5]: 108 ± 8 % of Control | toxicity [6]: toxic | changes in mitochondrial membrane potential [7]: did not lead to statistically significant changes

CCNC(=O)[C@@H]1CCCN1C(=O)[C@H](CCCNC(=N)N)NC(=O)[C@H](CC(C)C)NC(=O)[C@@H](CCCCN)NC(=O)[C@H](Cc1ccc(O)cc1)NC(=O)[C@H](CO)NC(=O)[C@H](Cc1c[nH]c2ccccc12)NC(=O)[C@H](Cc1c[nH]cn1)NC(=O)[C@@H]1CCC(=O)N1 [LHRH peptide, LHRH-Lys^6-des-Gly^10-Pro^9-ethylamide, reference compound]
toxicity [1]: did not have any significant toxicity

CC[C@@]1(O)C(=O)OCc2c1cc1n(c2=O)Cc2cc3ccccc3nc2-1 [CPT, camptothecin]
activation of caspase-dependent apoptosis pathway and cellular antiapoptotic defense (gene expression) [8]: activated both caspase-dependent pathways of apoptosis and cellular antiapoptotic defense

B1: LHRH-Lys^6-des-Gly^10-Pro^9-ethylamide (active analog of the LHRH peptide) (peptide)
peptide: QHWSY[dK]LRP-NHEt
modifications: ends and bridges not checked
concentration of LHRH that decreased cytotoxicity of LHRH-BH3 peptide by 50% (EC50 dose of LHRH peptide), A2780 cells (LHRH receptor): 7.3e-05 ng/mL

B2: LHRH-BH3 peptide (peptide)
peptide 1: QHWSY[dK]LRP-NHEt
peptide 2: MGQVGRQLAIIGDDINRRY
modifications: ends and bridges not checked; also: LHRH analog and BH3 peptide are joined, the linkage is not given here
cytotoxicity IC50 (modified MTT assay), LHRHR-positive A2780 human ovarian cancer cells (LHRH receptor): 3.97 ng/mL | toxicity in MCF-7 cells (LHRHR expression 1.6-fold less) relative to toxicity in A2780 cells, fold less (LHRH receptor): 10 fold | toxicity in PC-3 cells (LHRHR expression 3.2-fold less) relative to toxicity in A2780 cells, fold less (LHRH receptor): 100 fold
